Measured values as given in patent publication US10780078B2, “Mu opioid receptor modulators” (THE REGENTS OF THE UNIVERSITY OF CALIFORNIA, priority 2017, dated 2020).
Read-outs that look alike come from different tables or passages of the source.

Tests used:
δ (DOR) receptor = δ (DOR) receptor (Homo sapiens (Human), UniProt P41143); assay: Inhibitory constant at δ opioid receptor (DOR); format: binding
μ (MOR) receptor = μ (MOR) receptor (Homo sapiens (Human), UniProt P35372); assay: Inhibitory constant at μ opioid receptor (MOR); format: binding
[1] = target: MOR (ProLink tagged MOR-PK1 cotransfected with GRK2 / β-arrestin-2) (Homo sapiens (Human), UniProt P35372); assay: β-arrestin recruitment in the presence of GRK2, PathHunter assay; format: cell-based; conditions: for MOR activation, β-arrestin recruitment (+GRK2) Emax: HEK-293 cells cotransfected with GRK2; for EC50: MOR activation, β-arrestin recruitment (+GRK2) EC50, HEK-293 cells cotransfected with GRK2
Description: (§1) β-Arrestin recruitment was measured by using the PathHunter enzyme complementation assay (DiscoverX, Birmingham, U.K.) as described in the manufacturer's protocol. […] After 24 h cells were transferred into white clear bottom 384-well plates (5000 cells/well) (Greiner Bio-One) and maintained for further 24 h at 37° C., 5% CO2. Test compounds were incubated with the cells in a range from 0.01 nM to 1 μM dissolved in PBS for 90 min at 37° C. Arrestin recruitment was stopped by addition of detection mix for 60 min at room temperature. Chemiluminescence was determined using a Clariostar plate reader. Data analysis was done by nonlinear regression using the algorithms for log(agonist) vs. response of PRISM 6.0 (GraphPad, San Diego, Calif.). […] For testing the arrestin recruitment in the presence of GRK proteins cells were cotransfected with ProLink tagged MOR-PK1 and GRK2 at equal quantities.

human μOR = human μOR (Homo sapiens (Human), UniProt P35372); assay: cell-based
Description: Determination of functional activity of selected embodiments was performed using a BRET-based cAMP accumulation assay. […] After 24 hrs of transfection cells were seeded into white half-area 96-well plates at a density of 10000 cells/well and grown for further 24 hrs. On the day of measurement, medium was removed and replaced by Phosphate Buffered Saline (PBS) and cells were serum starved for 1 hr before treatment with ligands. Cells were preincubated with coelenterazine h (Progmega, Mannheim, Germany) for 5 min at a final concentration of 5 μM before adding forskolin (final concentration 10 μM) to start cAMP accumulation. Immediately after adding forskolin, a series of concentrations of test compounds were added to the cells. After incubating the microplates for 15 min at 37° C. BRET, measurement was performed using a Clariostar plate reader (BMG LabTech, Ortenberg, Germany).

[2] = target: MOR (ProLink tagged MOR-PK1 / β-arrestin-2) (Homo sapiens (Human), UniProt P35372); assay: β-arrestin recruitment, PathHunter enzyme complementation assay (DiscoverX); format: cell-based; conditions: for MOR activation, β-arrestin recruitment Emax: HEK-293 cells, normalized to maximum effect of DAMGO (100%); for Emax: HEK293, read-out: MOR activation, β-arrestin recruitment Emax
Description: as §1

[3] = normalized to maximum effect of DAMGO (100%)
[4] = Example 1, read-out: MOR: cAMP BRET: EC50
[5] = HEK-293T cells, forskolin 10 μM, mean of three to ten experiments, read-out: MOR activation, cAMP accumulation EC50

Sequence of δ (DOR) receptor (P41143 whole entry, looked up): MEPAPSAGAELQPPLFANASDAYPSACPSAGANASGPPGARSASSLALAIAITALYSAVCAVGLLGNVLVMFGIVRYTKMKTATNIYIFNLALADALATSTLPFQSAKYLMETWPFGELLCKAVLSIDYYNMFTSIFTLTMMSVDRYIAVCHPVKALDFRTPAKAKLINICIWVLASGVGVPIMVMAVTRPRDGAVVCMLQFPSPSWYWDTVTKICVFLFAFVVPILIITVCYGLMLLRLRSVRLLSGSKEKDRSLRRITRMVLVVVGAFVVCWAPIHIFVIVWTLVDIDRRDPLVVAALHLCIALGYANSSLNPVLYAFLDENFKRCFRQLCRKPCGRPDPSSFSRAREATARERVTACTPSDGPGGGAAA

SMILES	Ki (δ (DOR) receptor)	Ki (μ (MOR) receptor)	MOR activation, β-arrestin recruitment (+GRK2) Emax [1, 3]	MOR activation, cAMP accumulation Emax (human μOR)	MOR: cAMP BRET: Emax (human μOR; Example 1)	EC50 (human μOR; [4])	EC50 (human μOR; [5])	MOR activation, β-arrestin recruitment Emax [2]	EC50 [1]	Emax [2]	Emax ([1]; HEK293, read-out: MOR activation, β-arrestin recruitment (+GRK2) Emax, HEK-293 cells cotransfected with GRK2, normalized to maximum effect of DAMGO (100%))	Emax (human μOR; Example 1, read-out: MOR: cAMP BRET: Emax)	Emax (human μOR; HEK-293T, read-out: MOR activation, cAMP accumulation Emax)	MOR: Arrestin DiscoverX ([2]; Example 1)
C[C@@H](Cc1ccsc1)NC(=O)NCC1(N(C)C)CCc2ccccc2C1 (single isomer, unassigned) [DD 262 P1]	14000 nM	2600 nM	–	–	–	–	–	–	–	–	–	–	–	–
C[C@@H](Cc1ccsc1)NC(=O)NCC1(N(C)C)CCc2ccccc2C1 (single isomer, unassigned) [DD 262 P2]	7400 nM	1300 nM	–	–	–	–	–	–	–	–	–	–	–	–
C[C@@H](Cc1ccsc1)NC(=O)NCC1(N(C)C)CCc2cc(O)ccc2C1 (single isomer, unassigned) [DD 272A]	1800 nM	140 nM	<3%	75%	108%	136 nM	24 nM	<3%	–	–	–	–	–	–
C[C@@H](Cc1ccsc1)NC(=O)NCC1(N(C)C)CCc2cc(O)ccc2C1 (single isomer, unassigned) [DD 272B]	840 nM	57 nM	7%	98%	50%	1.6 nM	1.5 nM	–	450 nM	< 3%	–	–	–	–
C[C@@H](Cc1ccsc1)NC(=O)NCC1(N(C)C)Cc2ccc(O)cc2C1 (single isomer, unassigned) [DD 297A]	68 nM	5.9 nM	–	–	–	1.8 nM	1.2 nM	–	42 nM	< 3%	13%	80%	80%	–
C[C@@H](Cc1ccsc1)NC(=O)NCC1(N(C)C)Cc2ccc(O)cc2C1 (single isomer, unassigned) [DD 297B]	2000 nM	190 nM	7%	73%	65%	12.5 nM	13 nM	<3%	670 nM	–	–	–	–	–
C[C@@H](Cc1ccsc1)NC(=O)NCC1(N(C)C)Cc2ccccc2C1 [DD 277, (S)-1-((2-(dimethylamino)-2,3-dihydro-1H-inden-2-yl)methyl)-3-(1-(thiophen-3-yl)propan-2-yl)urea]	8400 nM	500 nM	–	–	–	–	–	–	–	–	–	–	–	–
C[C@@H](Cc1ccsc1)NC(=O)NCC1(N(C)C)Cc2ccc(O)cc2C1 (stereo partly drawn) [DD 297A, 1-((2-(dimethylamino)-5-hydroxy-2,3-dihydro-1H-inden-2-yl)methyl)-3-((S)-1-(thiophen-3-yl)propan-2-yl)urea]	–	–	–	–	–	–	–	–	–	–	–	–	–	no significant activity
